This is an account of results in paper PMC8869731, “KasQ an Epimerase Primes the Biosynthesis of Aminoglycoside Antibiotic Kasugamycin and KasF/H Acetyltransferases Inactivate Its Activity” (Biomedicines, 2022).

Where two headings read alike, the source gives them in different places.

The target of one test is KasH (Streptomyces kasugaensis, UniProt A0A0K1H2T0). Description: ITC of KasH versus ligands.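 As to all read-outs here: isothermal titration calorimetry at 25 °C, 0.1 mM KasH in the cell titrated with 1 mM ligand over 18 injections, data fit with a one-site binding model.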 The conditions noted are these: KasH; for n: ITC binding stoichiometry; for n / Kd: 50 mM MOPS pH 7.5, 100 mM NaCl; for ∆G / ∆H / ∆S / Kd: ITC.
The target in the next test is KasQ (Streptomyces kasugaensis, UniProt A0A0K1H2R6). The test can be described thus: Isothermal titration calorimetry (ITC) of KasQ wild type versus substrates.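 As to all read-outs here: titration of 1 mM substrate into 0.1 mM KasQ, 18 injections spaced 120 s, data fitted to a single-site binding model.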 Format: binding. The conditions noted are these: for ∆G / ∆H / ∆S / Kd / n: KasQ wild type; for Kd / n: 25 °C, 50 mM HEPES pH 8.0, 100 mM NaCl; for n: ITC binding stoichiometry.
Chain of KasQ (A0A0K1H2R6 entry or part of it): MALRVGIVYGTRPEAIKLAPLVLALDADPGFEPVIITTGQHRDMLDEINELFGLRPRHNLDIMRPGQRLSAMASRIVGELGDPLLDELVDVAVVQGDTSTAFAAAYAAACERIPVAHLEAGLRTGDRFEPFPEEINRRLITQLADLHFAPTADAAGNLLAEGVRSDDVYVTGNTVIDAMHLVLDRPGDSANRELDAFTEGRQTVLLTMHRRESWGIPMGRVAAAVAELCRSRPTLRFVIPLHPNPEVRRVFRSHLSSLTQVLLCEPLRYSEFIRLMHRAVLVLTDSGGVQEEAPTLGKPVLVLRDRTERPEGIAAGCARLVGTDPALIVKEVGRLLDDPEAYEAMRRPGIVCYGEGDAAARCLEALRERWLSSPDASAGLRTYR

Chain of KasH (A0A0K1H2T0 entry or part of it): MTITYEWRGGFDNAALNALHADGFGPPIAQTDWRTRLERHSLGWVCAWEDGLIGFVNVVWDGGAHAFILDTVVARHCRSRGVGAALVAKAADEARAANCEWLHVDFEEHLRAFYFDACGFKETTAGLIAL
Method for KasH: (§1) ITC analyses were carried out at 25 °C using an ITC200 microcalorimeter (MicroCal Inc., Northampton, MA, USA). […] The titration experiment contains 18 injections (2 μL for a duration of 4 s) and each injection was separated by 120 s. The distilled water was filled in the reference cell throughout all titrations. The cell stirring speed was 1000 rpm. The collected raw data were processed in Origin 7.0 (provided by MicroCal) by a non-linear least square method to a single-site binding model.
Method for KasQ: as §1

Regarding `CC(C)(COP(=O)(O)OP(=O)(O)OC[C@H]1O[C@@H](n2cnc3c(N)ncnc32)[C@H](O)[C@@H]1OP(=O)(O)O)[C@@H](O)C(=O)NCCC(=O)NCCS` [CoA], on KasH, the n was 0.6 ± 0.0, the “∆G” value was -5.478 ± 1.342 kcal/mol, the “∆H” value was -7.350 ± 1.342 kcal/mol and the “∆S” value was -6.28 cal mol-1 K-1. Moreover, on KasH, the Kd (commonly the free concentration of one partner at which half of the binding sites on the other are occupied at equilibrium, for simple one-to-one binding) was 96.1 µM.
Turning to `N[C@H]1C(O)O[C@H](CO)[C@@H](O)[C@@H]1O` (stereo partly drawn) [GlcNH2], at KasQ (ITC), the “∆G” value is recorded as “NBD”, the “∆H” value is reported as “NBD”, the “∆S” value was “NBD” and the Kd result is “NBD”.
For `OC[C@H]1OC(O)[C@H](O)[C@@H](O)[C@@H]1O` (stereo partly drawn) [D-Glucose], at KasQ (ITC), the “∆G” value is given as “NBD”, the “∆H” value is given as “NBD”, the “∆S” value is “NBD” and the Kd result is recorded as “NBD”.
Molecule `O=c1ccn([C@@H]2O[C@H](COP(=O)(O)OP(=O)(O)O)[C@@H](O)[C@H]2O)c(=O)[nH]1` [UDP 3] displayed a n on KasQ of 1.0 ± 0.0. Moreover, at KasQ (ITC), the “∆G” value is -6.128 ± 0.5523 kcal/mol, the “∆H” value was -4.130 ± 0.5523 kcal/mol and the “∆S” value is 6.70 cal mol^−1 K^−1. Moreover, the Kd at KasQ (ITC, read-out: Kd) came out at 32.2 ± 6.8 µM. In addition, the “binding affinity versus KasQ relative to UMP, UTP and TTP” value on KasQ (ITC, higher than that of the others) was 2–5 fold.
Molecule `Cc1cn([C@H]2C[C@H](O)[C@@H](COP(=O)(O)OP(=O)(O)O[C@H]3O[C@H](CO)[C@@H](O)[C@H](O)[C@H]3O)O2)c(=O)[nH]c1=O` [TDP-Glc] returned a n at KasQ of 0.3 ± 0.0. Besides, on KasQ (ITC), the “∆G” value is -6.273 ± 0.2773 kcal/mol, the “∆H” value was -4.568 ± 0.2773 kcal/mol and the “∆S” value is 5.72 cal mol^−1 K^−1. Besides, the dissociation constant (Kd) at KasQ (ITC, read-out: Kd) was found to be 25.1 ± 0.2 µM.
For `Nc1nc2c(ncn2[C@@H]2O[C@H](COP(=O)(O)OP(=O)(O)O[C@H]3O[C@H](CO)[C@@H](O)[C@H](O)[C@@H]3O)[C@@H](O)[C@H]2O)c(=O)[nH]1` [GDP-Man], at KasQ (ITC), the “∆G” value is given as “NBD”, the “∆H” value is reported as “NBD”, the “∆S” value is reported as “NBD” and the Kd entry is reported as “NBD”.
The molecule `O=c1ccn([C@@H]2O[C@H](COP(=O)(O)O)[C@@H](O)[C@H]2O)c(=O)[nH]1` [UMP] came in with a n on KasQ of 1.0 ± 0.0. For the same molecule, at KasQ (ITC), the “∆G” value was -13.19 ± 1.245 kcal/mol and the “∆H” value is -9.254 ± 1.245 kcal/mol. Further, at KasQ (ITC, read-out: Kd), the Kd came out at 124 ± 70.9 µM.
Consider `Nc1nc2c(ncn2[C@@H]2O[C@H](COP(=O)(O)OP(=O)(O)O)[C@@H](O)[C@H]2O)c(=O)[nH]1` [GDP], for which, on KasQ (ITC), the “∆G” value is “NBD”; the “∆H” value is on record as “NBD”; the “∆S” value was “NBD”; the dissociation constant (Kd) entry was “nor AMP, ADP, ATP, GMP, GDP, or GTP shows detectable binding affinity and NBD”.
For `O=C(O)[C@H]1OC(O)[C@H](O)[C@@H](O)[C@H]1O` (stereo partly drawn) [GalA], on KasQ (ITC), the “∆G” value is recorded as “NBD”, the “∆H” value is on record as “NBD”, the “∆S” value is reported as “NBD” and the equilibrium dissociation constant (Kd) entry is “NBD”.
For `Nc1ncnc2c1ncn2[C@@H]1O[C@H](COP(=O)(O)OP(=O)(O)O)[C@@H](O)[C@H]1O` [ADP], on KasQ (ITC), the “∆G” value is recorded as “NBD”; the “∆H” value is given as “NBD”; the “∆S” value is on record as “NBD”; the Kd result was “nor AMP, ADP, ATP, GMP, GDP, or GTP shows detectable binding affinity and NBD”.
As for `Nc1ncnc2c1ncn2[C@@H]1O[C@H](COP(=O)(O)O)[C@@H](O)[C@H]1O` [AMP], at KasQ (ITC), the “∆G” value is given as “NBD”; the “∆H” value is reported as “NBD”; the “∆S” value was “NBD”; the Kd entry was “nor AMP, ADP, ATP, GMP, GDP, or GTP shows detectable binding affinity and NBD”.
With `Nc1ncnc2c1ncn2[C@@H]1O[C@H](COP(=O)(O)OP(=O)(O)OP(=O)(O)O)[C@@H](O)[C@H]1O` [ATP], at KasQ (ITC), the “∆G” value is “NBD”; the “∆H” value is “NBD”; the “∆S” value was “NBD”; the dissociation constant (Kd) entry was “nor AMP, ADP, ATP, GMP, GDP, or GTP shows detectable binding affinity and NBD”.
With `O=C(O)[C@H]1OC(O)[C@H](O)[C@@H](O)[C@@H]1O` (stereo partly drawn) [GlcA], at KasQ (ITC), the “∆G” value was “NBD”, the “∆H” value is “NBD”, the “∆S” value was “NBD” and the dissociation constant (Kd) result is reported as “NBD”.
For the molecule `Nc1nc2c(ncn2[C@@H]2O[C@H](COP(=O)(O)OP(=O)(O)OC3O[C@H](CO)[C@@H](O)[C@H](O)[C@H]3O)[C@@H](O)[C@H]2O)c(=O)[nH]1` (stereo partly drawn) [GDP-Glc], at KasQ (ITC), the “∆G” value is “NBD”, the “∆H” value is “NBD”, the “∆S” value is “NBD” and the equilibrium dissociation constant (Kd) entry is reported as “NBD”.
Regarding `CC(=O)N[C@H]1C(O)O[C@H](CO)[C@H](O)[C@@H]1O` (stereo partly drawn) [GalNAc], on KasQ (ITC), the “∆G” value is recorded as “NBD”, the “∆H” value is “NBD”, the “∆S” value is “NBD” and the dissociation constant Kd result is given as “NBD”.
On to `O=C[C@H](O)[C@@H](O)[C@@H](O)[C@H](O)CO` [D-Galactose], for which, at KasQ (ITC), the “∆G” value is “NBD”, the “∆H” value is recorded as “NBD”, the “∆S” value is on record as “NBD” and the equilibrium dissociation constant (Kd) entry is “NBD”.
Consider `CC(=O)N[C@H]1C(O)O[C@H](CO)[C@@H](O)[C@@H]1O` (stereo partly drawn) [GlcNAc], for which, on KasQ (ITC), the “∆G” value is on record as “NBD”, the “∆H” value is “NBD”, the “∆S” value is given as “NBD” and the Kd entry is on record as “NBD”.
`Nc1nc2c(ncn2[C@@H]2O[C@H](COP(=O)(O)OP(=O)(O)OP(=O)(O)O)[C@@H](O)[C@H]2O)c(=O)[nH]1` [GTP]: at KasQ (ITC), the “∆G” value is “NBD”; the “∆H” value is listed as “NBD”; the “∆S” value was “NBD”; the Kd result was “nor AMP, ADP, ATP, GMP, GDP, or GTP shows detectable binding affinity and NBD”.
In the case of `Nc1nc2c(ncn2[C@@H]2O[C@H](COP(=O)(O)O)[C@@H](O)[C@H]2O)c(=O)[nH]1` [GMP], on KasQ (ITC), the “∆G” value is listed as “NBD”; the “∆H” value is “NBD”; the “∆S” value is listed as “NBD”; the Kd result is “nor AMP, ADP, ATP, GMP, GDP, or GTP shows detectable binding affinity and NBD”.
`CC(=O)SCCNC(=O)CCNC(=O)[C@H](O)C(C)(C)COP(=O)(O)OP(=O)(O)OC[C@H]1O[C@@H](n2cnc3c(N)ncnc32)[C@H](O)[C@@H]1OP(=O)(O)O` [AcCoA]: on KasH, the n turned out to be 1.3 ± 0.4, the “∆G” value is -5.240 ± 8.196 kcal/mol, the “∆H” value was -14.19 ± 8.196 kcal/mol and the “∆S” value was -30.02 cal mol-1 K-1. For the same molecule, the affinity on KasH, expressed as Kd, was 161 µM.
On KasQ, `Cc1cn([C@H]2C[C@H](O)[C@@H](COP(=O)(O)OP(=O)(O)OP(=O)(O)O)O2)c(=O)[nH]c1=O` [TTP] gave a n of 1.1 ± 0.1. Also, at KasQ (ITC), the “∆G” value is -5.128 ± 1.221 kcal/mol, the “∆H” value was -7.612 ± 1.221 kcal/mol and the “∆S” value was −8.33 cal mol^−1 K^−1. Further, the Kd on KasQ (ITC, read-out: Kd) stood at 174 ± 20.2 µM.
As to `OC[C@H]1OC(O)[C@@H](O)[C@@H](O)[C@@H]1O` (stereo partly drawn) [D-Mannose], at KasQ (ITC), the “∆G” value is “NBD”, the “∆H” value is “NBD”, the “∆S” value is “NBD” and the Kd result is listed as “NBD”.
`O=c1ccn([C@@H]2O[C@H](COP(=O)(O)OP(=O)(O)OP(=O)(O)O)[C@@H](O)[C@H]2O)c(=O)[nH]1` [UTP] returned a n at KasQ of 1.0 ± 0.0. Moreover, at KasQ (ITC), the “∆G” value was -5.645 ± 1.340 kcal/mol, the “∆H” value was -9.104 ± 1.340 kcal/mol and the “∆S” value is reported as −11.6 cal mol^−1 K^−1. In addition, the Kd on KasQ (ITC, read-out: Kd) is 71.4 ± 5.7 µM.
As for `CCC(=O)SCCNC(=O)CCNC(=O)[C@H](O)C(C)(C)COP(=O)(O)OP(=O)(O)OC[C@H]1O[C@@H](n2cnc3c(N)ncnc32)[C@H](O)[C@@H]1OP(=O)(O)O` [Propionyl-CoA, propionyl-CoA], at KasH, the n turned out to be 0.5 ± 0.0, the “∆G” value was -6.081 ± 0.3918 kcal/mol, the “∆H” value is -7.351 ± 0.3918 kcal/mol and the “∆S” value is given as -4.26 cal mol-1 K-1. The molecule further gave a dissociation constant (Kd) on KasH of 35 µM.
For `CC(=O)CC(=O)SCCNC(=O)CCNC(=O)[C@H](O)C(C)(C)COP(=O)(O)OP(=O)(O)OC[C@H]1O[C@@H](n2cnc3c(N)ncnc32)[C@H](O)[C@@H]1OP(=O)(O)O` [Acetoacetyl-CoA, acetoacetyl-CoA], on KasH, the n is reported as 0.5 ± 0.1, the “∆G” value is -5.469 ± 2.477 kcal/mol, the “∆H” value was -6.149 ± 2.477 kcal/mol and the “∆S” value is reported as -2.28 cal mol-1 K-1. Moreover, on KasH, the Kd amounted to 98 µM.
In turn, `CC(=O)N[C@H]1[C@@H](OP(=O)(O)OP(=O)(O)OC[C@H]2O[C@@H](n3ccc(=O)[nH]c3=O)[C@H](O)[C@@H]2O)O[C@H](CO)[C@H](O)[C@@H]1O` [UDP-GalNAc] yielded a n at KasQ of 1.8 ± 0.4. Besides, at KasQ (ITC), the “∆G” value is -4.742 ± 1.700 kcal/mol, the “∆H” value was -3.418 ± 1.700 kcal/mol and the “∆S” value is reported as 4.44 cal mol^−1 K^−1.
With `CC(C)CC(=O)SCCNC(=O)CCNC(=O)[C@H](O)C(C)(C)COP(=O)(O)OP(=O)(O)OC[C@H]1O[C@@H](n2cnc3c(N)ncnc32)[C@H](O)[C@@H]1OP(=O)(O)O` [Isovaleryl-CoA, isovaleryl-CoA], at KasH, the n was 1.0 ± 0.7, the “∆G” value was -5.048 ± 3.166 kcal/mol, the “∆H” value was -3.116 ± 3.166 kcal/mol and the “∆S” value was found to be 6.48 cal mol-1 K-1. At KasH, this molecule returned a dissociation constant (Kd) of 199 µM.
In the case of `CC(=O)NC1=CO[C@H](CO)[C@@H](O)[C@@H]1O` [AAG 2, 2-acetamidoglucal], at KasQ (ITC), the “∆G” value is given as “NBD”, the “∆H” value is given as “NBD”, the “∆S” value was “NBD” and the equilibrium dissociation constant (Kd) result is “NBD”. For the same molecule, at KasQ (ITC, listed as AAG), the dissociation constant Kd result is “no binding affinity”.
